Reference: patent US20220251084A1, “PROGRANULIN MODULATORS AND METHODS OF USING THE SAME” (ARKUDA THERAPEUTICS, priority 2019, published 2022)

Test system: progranulin (PGRN) secretion, BV-2 cells
Assay: PGRN assay: progranulin induction cellular assay (ELISA of secreted mouse PGRN)
Type: cell-based
Conditions: not given
Method: Cellular Assays: To measure the efficacy of compounds, a progranulin induction cellular assay in mouse primary microglia (pMG), primary cortical neurons, and BV-2 cell lines is used. BV-2 cells are split the day before plating into a 96 well plate format at approximately 80%. Cells should be plated the day before and allowed for 1 hour attachment period and for 16 hour incubation. […] Standard ELISA kits to measure PGRN are available from vendors such as Adipogen, R&D, and Biovendor.

| SMILES | EC50 |
| --- | --- |
| O=C(O[C@@H]1CN2CCC1CC2)N1CCc2ccsc2C1c1ccc(F)cc1 (stereo partly drawn) [Compound 2122, (S)-quinuclidin-3-yl 7-(4-fluorophenyl)-4,7-dihydrothieno[2,3-c]pyridine-6(5H)-carboxylate] | 3.28 µM |
| O=C(O[C@@H]1CN2CCC1CC2)N1CCn2ccnc2C1c1ccc(F)cc1 (stereo partly drawn) [Compound 2123, (S)-quinuclidin-3-yl 8-(4-fluorophenyl)-5,6-dihydroimidazo[1,2-a]pyrazine-7(8H)-carboxylate] | > 10 µM |
| O=C(O[C@@H]1CN2CCC1CC2)N1CCn2nnnc2C1c1ccc(F)cc1 (stereo partly drawn) [Compound 2124] | 5.34 µM |

Same assay, conditions: Mus musculus, BV-2

| SMILES | EC50 |
| --- | --- |
| CNC(=O)c1ccc2c(c1)[C@H](c1ccc(F)cc1)N(C(=O)O[C@@H]1CN3CCC1CC3)CC2 [Compound 2065] | > 10 µM |
| CNC(=O)c1ccc2c(c1)[C@@H](c1ccc(F)cc1)N(C(=O)O[C@@H]1CN3CCC1CC3)CC2 [Compound 2066] | > 10 µM |
| C#CCOc1ccc2c(c1)CCN(C(=O)O[C@@H]1CN3CCC1CC3)[C@H]2c1ccc(F)cc1 [Compound 2082] | 7.46 µM |
| C#CCOc1ccc2c(c1)CCN(C(=O)O[C@@H]1CN3CCC1CC3)[C@@H]2c1ccc(F)cc1 [Compound 2083] | 6.07 µM |
| COC(=O)c1ccc2c(c1)CCN(C(=O)O[C@@H]1CN3CCC1CC3)[C@H]2c1ccc(F)cc1 [Compound 2086] | > 10 µM |
| COC(=O)c1ccc2c(c1)CCN(C(=O)O[C@@H]1CN3CCC1CC3)[C@@H]2c1ccc(F)cc1 [Compound 2087] | > 10 µM |
| CNC(=O)c1ccc2c(c1)CCN(C(=O)O[C@@H]1CN3CCC1CC3)[C@H]2c1ccc(F)cc1 [Compound 2100] | > 10 µM |
| CNC(=O)c1ccc2c(c1)CCN(C(=O)O[C@@H]1CN3CCC1CC3)[C@@H]2c1ccc(F)cc1 [Compound 2101] | > 10 µM |

Same assay, conditions: Mus musculus, BV-2, PGRN assay, Table C; secreted mouse PGRN in cell culture medium, ELISA

| SMILES | EC50 |
| --- | --- |
| CNC(=O)c1ccc2c(c1)[C@H](c1ccc(F)cc1)N(C(=O)OCC13CCN(CC1)CC3)CC2 [Compound 2059] | > 10 µM |
| CNC(=O)c1ccc2c(c1)[C@@H](c1ccc(F)cc1)N(C(=O)OCC13CCN(CC1)CC3)CC2 [Compound 2060] | > 10 µM |
| C#CCOc1ccc2c(c1)CCN(C(=O)N[C@@H]1CN3CCC1CC3)[C@H]2c1ccc(F)cc1 [Compound 2063] | > 10 µM |
| C#CCOc1ccc2c(c1)CCN(C(=O)N[C@@H]1CN3CCC1CC3)[C@@H]2c1ccc(F)cc1 [Compound 2064] | > 10 µM |
| CN1C2COCC1CC(OC(=O)N1CCc3ccccc3[C@@H]1c1ccc(F)cc1)C2 (stereo partly drawn) [Compound 2067, (1 S)-9′-methyl-3′-oxa-9′-azabicyclo[3.3.1]nonan-7′-yl-1-(4-fluorophenyl)-3,4-dihydroisoquinoline-2(1H)-carboxylate] | 0.24 µM |
| COC(=O)c1ccc2c(c1)CCN(C(=O)NCC13CCN(CC1)CC3)[C@H]2c1ccc(F)cc1 [Compound 2068] | 3.37 µM |
| COC(=O)c1ccc2c(c1)CCN(C(=O)NCC13CCN(CC1)CC3)[C@@H]2c1ccc(F)cc1 [Compound 2069] | 4.13 µM |
| CNC(=O)c1ccc2c(c1)CCN(C(=O)NCC13CCN(CC1)CC3)[C@H]2c1ccc(F)cc1 [Compound 2070] | 3.62 µM |
| CNC(=O)c1ccc2c(c1)CCN(C(=O)NCC13CCN(CC1)CC3)[C@@H]2c1ccc(F)cc1 [Compound 2071] | 3.72 µM |
| COC(=O)c1ccc2c(c1)CCN(C(=O)OCC13CCN(CC1)CC3)[C@H]2c1ccc(F)cc1 [Compound 2072] | 8.08 µM |
| COC(=O)c1ccc2c(c1)CCN(C(=O)OCC13CCN(CC1)CC3)[C@@H]2c1ccc(F)cc1 [Compound 2073] | > 10 µM |
| O=C(C(O)[C@@H]1CN2CCC1CC2)N1CCc2ccccc2[C@@H]1c1ccc(F)cc1 (stereo partly drawn) [Compound 2074, 1-((S)-1-(4-fluorophenyl)-3,4-dihydroisoquinolin-2(1H)-yl)-2-hydroxy-2-(quinuclidin-3-yl)ethanone] | 3.4 µM |
| C#CCOc1ccc2c(c1)CCN(C(=O)OCC13CCN(CC1)CC3)[C@H]2c1ccc(F)cc1 [Compound 2078] | 5.35 µM |
| C#CCOc1ccc2c(c1)CCN(C(=O)OCC13CCN(CC1)CC3)[C@@H]2c1ccc(F)cc1 [Compound 2079] | 4.83 µM |
| CNC(=O)c1ccc2c(c1)CCN(C(=O)OCC13CCN(CC1)CC3)[C@H]2c1ccc(F)cc1 [Compound 2080] | > 10 µM |
| CNC(=O)c1ccc2c(c1)CCN(C(=O)OCC13CCN(CC1)CC3)[C@@H]2c1ccc(F)cc1 [Compound 2081] | > 10 µM |
| C#CCOc1ccc2c(c1)CCN(C(=O)NCC13CCN(CC1)CC3)[C@H]2c1ccc(F)cc1 [Compound 2084] | > 10 µM |
| C#CCOc1ccc2c(c1)CCN(C(=O)NCC13CCN(CC1)CC3)[C@@H]2c1ccc(F)cc1 [Compound 2085] | 4.99 µM |
| COC(=O)c1ccc2c(c1)CCN(C(=O)N[C@@H]1CN3CCC1CC3)[C@@H]2c1ccc(F)cc1 [Compound 2089] | > 10 µM |
| CNC(=O)c1ccc2c(c1)CCN(C(=O)N[C@@H]1CN3CCC1CC3)[C@H]2c1ccc(F)cc1 [Compound 2090] | > 10 µM |
| CNC(=O)c1ccc2c(c1)CCN(C(=O)N[C@@H]1CN3CCC1CC3)[C@@H]2c1ccc(F)cc1 [Compound 2091] | > 10 µM |
| O=C(OCC12CCN(CC1)CC2)N1CCc2ccccc2[C@@H]1c1ccc(F)cc1F [Compound 2096] | 0.387 µM |

| SMILES | EC50 |
| --- | --- |
| O=C(N[C@@H]1CN2CCC1CC2)C(=O)N1CCc2ccccc2[C@@H]1c1ccc(F)cc1 [Compound 2104] | 1.61 µM |
| CN1CCC(COC(=O)N2CCc3ccccc3[C@@H]2c2ccc(F)cc2F)CC1 [Compound 2105] | 1.07 µM |
| O=C(OCC1CCN(CC(F)(F)F)CC1)N1CCc2ccccc2[C@@H]1c1ccc(F)cc1 [Compound 2107] | > 10 µM |
| CN1CCC(COC(=O)N2CCc3ccccc3[C@@H]2c2cc(F)cc(F)c2)CC1 [Compound 2108] | > 3.16 µM |
| CN1CCC(COC(=O)N2CCc3ccccc3[C@H]2c2cc(F)cc(F)c2)CC1 [Compound 2109] | > 10 µM |
| O=C(OCC12CCN(CC1)CC2)N1CCc2ccccc2[C@@H]1c1ccc(F)c(F)c1 [Compound 2110] | 7.82 µM |
| O=C(OCC12CCN(CC1)CC2)N1CCc2ccccc2[C@H]1c1ccc(F)c(F)c1 [Compound 2111] | 0.635 µM |
| O=C(OCC12CCN(CC1)CC2)N1CCc2ccccc2[C@@H]1c1cccc(F)c1F [Compound 2112] | 8.27 µM |
| O=C(OCC12CCN(CC1)CC2)N1CCc2ccccc2[C@H]1c1cccc(F)c1F [Compound 2113] | 0.596 µM |
| CN1CCC(F)(COC(=O)N2CCc3ccccc3[C@@H]2c2ccc(F)cc2)CC1 [Compound 2114] | 0.401 µM |
| C#CCOc1ccc2c(c1)[C@H](c1ccc(F)cc1)N(C(=O)N[C@@H]1CN3CCC1CC3)CC2 [Compound 2115, (S)-1-(4-fluorophenyl)-7-(prop-2-yn-1-yloxy)-N—((S)-quinuclidin-3-yl)-3,4-dihydroisoquinoline-2(1H)-carboxamide] | 8.37 µM |
| COC(=O)c1ccc2c(c1)[C@H](c1ccc(F)cc1)N(C(=O)N[C@@H]1CN3CCC1CC3)CC2 [Compound 2116, methyl (S)-1-(4-fluorophenyl)-2-(((S)-quinuclidin-3-yl)carbamoyl)-1,2,3,4-tetrahydroisoquinoline-7-carboxylate] | > 10 µM |
| COC(=O)c1ccc2c(c1)[C@H](c1ccc(F)cc1)N(C(=O)NCC13CCN(CC1)CC3)CC2 [Compound 2117, methyl (S)-1-(4-fluorophenyl)-2-((quinuclidin-4-ylmethyl)carbamoyl)-1,2,3,4-tetrahydroisoquinoline-7-carboxylate] | > 10 µM |
| CNC(=O)c1ccc2c(c1)[C@H](c1ccc(F)cc1)N(C(=O)N[C@@H]1CN3CCC1CC3)CC2 [Compound 2118, (S)-1-(4-fluorophenyl)-N7-methyl-N2-((S)-quinuclidin-3-yl)-3,4-dihydroisoquinoline-2,7(1H)-dicarboxamide] | > 10 µM |
| CNC(=O)c1ccc2c(c1)[C@H](c1ccc(F)cc1)N(C(=O)NCC13CCN(CC1)CC3)CC2 [Compound 2119, (S)-1-(4-fluorophenyl)-N7-methyl-N2-(quinuclidin-4-ylmethyl)-3,4-dihydroisoquinoline-2,7(1H)-dicarboxamide] | > 10 µM |
| CN1CCC2(CCCN2C(=O)N2CCc3ccccc3[C@@H]2c2ccc(F)cc2)CC1 [Compound 2120, (S)-(1-(4-fluorophenyl)-3,4-dihydroisoquinolin-2(1H)-yl)(8-methyl-1,8-diazaspiro[4.5]decan-1-yl)methanone] | 2.68 µM |
| CN1CCC2(CC1)CCN(C(=O)N1CCc3ccccc3[C@@H]1c1ccc(F)cc1)C2 [Compound 2121] | > 10 µM |
| CN1CCC(OC(=O)N2CCc3ccccc3[C@@H]2c2ccc(F)cc2)(C(F)(F)F)CC1 [Compound 2128, 1-methyl-4-(trifluoromethyl)piperidin-4-yl (S)-1-(4-fluorophenyl)-3,4-dihydroisoquinoline-2(1H)-carboxylate] | 7.54 µM |
| CN1CCC(C)(OC(=O)N2CCc3ccccc3[C@@H]2c2ccc(F)cc2)CC1 [Compound 2129] | 0.358 µM |
| O=C(OCCC12CCN(CC1)CC2)N1CCc2ccccc2[C@@H]1c1ccc(F)cc1 [Compound 2130, 2-(quinuclidin-4-yl)ethyl (S)-1-(4-fluorophenyl)-3,4-dihydroisoquinoline-2(1H)-carboxylate] | > 3.16 µM |
| O=S(=O)(CCN1CCc2ccccc2[C@@H]1c1ccc(F)cc1)C12CCN(CC1)CC2 [Compound 2131, (S)-4-((2-(1-(4-fluorophenyl)-3,4-dihydroisoquinolin-2(1H)-yl)ethyl)sulfonyl)quinuclidine] | 4.19 µM |

Same assay, conditions: PGRN assay, Table C; secreted mouse PGRN in cell culture medium, ELISA

| EC50 | SMILES |
| --- | --- |
| 3.17 µM | CN1CCC(COC(=O)N2CCc3ccccc3[C@@H]2c2ccc(F)cc2)CC1 [Compound 2095] |
| 2.82 µM | O=C(OC1[C@@H]2CC3C[C@@H]1CN(C3)C2)N1CCc2ccccc2[C@@H]1c1ccc(F)cc1 (stereo partly drawn) [Compound 2097] |
| 0.339 µM | O=C(OC1[C@@H]2CC3C[C@@H]1CN(C3)C2)N1CCc2ccccc2[C@@H]1c1ccc(F)cc1 (stereo partly drawn) [Compound 2098] |
